From patent publication US9035056B2, “Pyrido[4,3-b]indole and pyrido[3,4-b]indole derivatives and methods of use” (Medivation Technologies, Inc., priority 2011, dated 2015)

Legend:
[1] = target: T1, human recombinant histamine H1 receptor (Homo sapiens, UniProt P35367); experiment: Histamine H1 radioligand binding ([3H]Pyrilamine); settings: 1 μM compound; read-out: Binding data (Percentage inhibition) Histamine H1 (1 μM)
T1 construct: expressed in transfected cells; host or cells: CHO-K1
Description: To evaluate in radioligand binding assays the activity of compounds of the invention, human recombinant histamine H1 receptor expressed in Chinese hamster ovary (CHO) K1 cells (De Backer, M. et al, Biochem. Biophys. Res. Comm. 197(3):1601, 1993) in a modified Tris-HCl buffer (50 mM Tris-HCl, pH 7.4, 2 mM MgCl2, 100 mM NaCl, 250 mM Sucrose) was used. Compounds of the invention were incubated with 1.2 nM [^3H]Pyrilamine for 180 min at 25° C. Non-specific binding was estimated in the presence of 1 μM Pyrilamine. Receptor proteins were filtered and washed, the filters were then counted to determine [^3H]Pyrilamine specifically bound. Compounds were screened at 1 μM or lower, using 1% DMSO as vehicle. Biochemical assay results are presented as the percent inhibition of specific binding in Table 3.

[2] = target: T2, human recombinant dopamine D2L receptor (Homo sapiens, UniProt P14416); experiment: Dopamine D2L radioligand binding ([3H]Spiperone); settings: 1 μM compound; read-out: Percentage inhibition of ligand binding, Dopamine D2L
T2 construct: expressed in transfected cells; host or cells: CHO
Description: To evaluate in radioligand binding assays the activity of compounds of the invention, human recombinant dopamine D2L receptor expressed in Chinese hamster ovary (CHO) cells (Grandy, D. et al, Proc. Natl. Acad. Sci. USA. 86:9762, 1989; Hayes, G. et al, Mol. Endocrinol. 6:920, 1992) in a modified Tris-HCl buffer (50 mM Tris-HCl, pH 7.4, 1.4 mM Ascorbic Acid, 0.001% BSA, 150 mM NaCl) was used. Compounds of the invention were incubated with 0.16 nM [^3H]Spiperone for 120 min at 25° C. Non-specific binding was estimated in the presence of 10 μM Haloperidol. Receptor proteins were filtered and washed, the filters were then counted to determine [^3H]Spiperone specifically bound. Compounds were screened at 1 μM or lower, using 1% DMSO as vehicle. Biochemical assay results are presented as the percent inhibition of specific binding in Table 4.

[3] = target: T3, human recombinant serotonin (5-Hydroxytryptamine) 5-HT2A receptor (Homo sapiens, UniProt P28223); experiment: Serotonin 5-HT2A radioligand binding ([3H]Ketanserin); settings: 0.1 μM compound; read-out: Percentage inhibition of ligand binding, Serotonin 5-HT2A
T3 construct: expressed in transfected cells; host or cells: CHO-K1
Description: To evaluate in radioligand binding assays the activity of compounds of the invention, human recombinant serotonin (5-Hydroxytryptamine) 5-HT2A receptor expressed in Chinese hamster ovary (CHO) K1 cells (Bonhaus, D. et al, Br. J. Pharmacol. 115:622, 1995; Saucier, C. et al, J. Neurochem. 68:1998, 1997) in a 50 mM Tris-HCl buffer, pH 7.4, was used. Compounds of the invention were incubated with 0.5 nM [^3H]Ketanserin for 60 min at 25° C. Non-specific binding was estimated in the presence of 1 μM Mianserin. Receptor proteins were filtered and washed, the filters were then counted to determine [^3H]Ketanserin specifically bound. Compounds were screened at 1 μM or lower, using 1% DMSO as vehicle. Biochemical assay results are presented as the percent inhibition of specific binding in Table 5.

[4] = target: T4, human recombinant serotonin (5-Hydroxytryptamine) 5-HT2C receptor (Homo sapiens, UniProt P28335); experiment: Serotonin 5-HT2C radioligand binding ([3H]Mesulergine); settings: 0.1 μM compound; read-out: Percentage inhibition of ligand binding, Serotonin 5-HT2C
T4 construct: expressed in transfected cells; host or cells: CHO-K1
T4 sequence (P28335 33-458): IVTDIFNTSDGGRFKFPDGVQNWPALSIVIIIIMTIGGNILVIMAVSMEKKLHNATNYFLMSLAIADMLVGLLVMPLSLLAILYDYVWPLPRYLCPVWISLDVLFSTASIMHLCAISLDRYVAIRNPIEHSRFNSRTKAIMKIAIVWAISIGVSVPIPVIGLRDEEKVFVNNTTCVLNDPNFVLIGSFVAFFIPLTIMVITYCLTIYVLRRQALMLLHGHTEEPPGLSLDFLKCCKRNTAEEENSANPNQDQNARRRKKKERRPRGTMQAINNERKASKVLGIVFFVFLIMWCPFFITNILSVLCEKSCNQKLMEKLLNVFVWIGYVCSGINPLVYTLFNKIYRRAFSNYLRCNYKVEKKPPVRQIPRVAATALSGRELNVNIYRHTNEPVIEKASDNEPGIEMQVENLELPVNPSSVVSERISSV
Description: To evaluate in radioligand binding assays the activity of compounds of the invention, human recombinant serotonin (5-Hydroxytryptamine) 5-HT2C receptor expressed in Chinese hamster ovary (CHO) K1 cells (Wolf, W. et al, J. Neurochem. 69:1449, 1997) in a modified Tris-HCl buffer (50 mM Tris-HCl, pH 7.4, 0.1% Ascorbic Acid, 10 μM Pargyline) was used. Compounds of the invention were incubated with 1 nM [^3H]Mesulergine for 60 min at 25° C. Non-specific binding was estimated in the presence of 1 μM Mianserin. Receptor proteins were filtered and washed, the filters were then counted to determine [^3H]Mesulergine specifically bound. Compounds were screened at 1 μM or lower, using 1% DMSO as vehicle. Biochemical assay results are presented as the percent inhibition of specific binding in Table 5.

[5] = target: T5, human recombinant serotonin (5-Hydroxytryptamine) 5-HT6 receptor (Homo sapiens, UniProt P50406); experiment: Serotonin 5-HT6 radioligand binding ([3H]LSD); settings: 0.1 μM compound; read-out: Percentage inhibition of ligand binding, Serotonin 5-HT6
T5 construct: expressed in transfected cells; host or cells: HeLa
Description: To evaluate in radioligand binding assays the activity of compounds of the invention, human recombinant serotonin (5-Hydroxytryptamine) 5-HT6 receptor expressed in human HeLa cells (Monsma, F. Jr. et al, Mol. Pharmacol. 43:320, 1993) in a modified Tris-HCl buffer (50 mM Tris-HCl, pH 7.4, 150 mM NaCl, 2 mM Ascorbic Acid, 0.001% BSA) was used. Compounds of the invention were incubated with 1.5 nM [3H]Lysergic acid diethylamide (LSD) for 120 min at 37° C. Non-specific binding was estimated in the presence of 5 μM Serotonin (5-HT). Receptor proteins were filtered and washed, the filters were then counted to determine [3H]LSD specifically bound. Compounds were screened at 1 μM or lower, using 1% DMSO as vehicle. Biochemical assay results are presented as the percent inhibition of specific binding in Table 5.

[6] = target: T6, human recombinant serotonin (5-Hydroxytryptamine) 5-HT7 receptor (Homo sapiens, UniProt P34969); experiment: Serotonin 5-HT7 radioligand binding ([3H]LSD); settings: 0.1 μM compound; read-out: Percentage inhibition of ligand binding, Serotonin 5-HT7
T6 construct: expressed in transfected cells; host or cells: CHO
Description: To evaluate in radioligand binding assays the activity of compounds of the invention, human recombinant serotonin (5-Hydroxytryptamine) 5-HT7 receptor expressed in Chinese hamster ovary (CHO) cells (Roth, B. et al, J. Pharmacol. Exp. Ther. 268:1403, 1994; Shen, Y. et al, J. Biol. Chem. 268:18200, 1993) in a modified Tris-HCl buffer (50 mM Tris-HCl, pH 7.4, 10 mM MgCl2, 0.5 mM EDTA) was used. Compounds of invention were incubated with 5.5 nM [^3H] Lysergic acid diethylamide (LSD) for 2 h at 25° C. Non-specific binding was estimated in the presence of 10 μM Serotonin (5-HT). Receptor proteins were filtered and washed, the filters were then counted to determine [^3H]LSD specifically bound. Compounds were screened at 1 μM or lower, using 1% DMSO as vehicle. Biochemical assay results are presented as the percent inhibition of specific binding in Table 5.

[7] = test system: New Zealand White rabbits; settings: conscious rabbits, intravenous, positive control, before the blood pressure reversed back
Description: Four adult New Zealand White rabbits of both sexes are chosen for these studies. The experiments are conducted in accordance with the Australian code of Practice for the Care and use of Animals for Scientific Purposes and approval is sought from the Animal Experimental Committee of Alfred Hospital, Baker IDI, Melbourne, Australia. The conscious rabbits are implanted with an intravenous catheter in marginal ear vein or by centrally by […] catheter interfaced to a pressure transducer connected to a suitable recorder. To unveil peripheral effects of test compound, two sets of acute studies are conducted in rabbits. In the first set of studies, test compound is dosed to rabbit intravenously for a dose-response study with cumulative doses starting 0 (Ringer's Lock solution as a vehicle), 0.1, 0.3, 1, 3.2 and 10 mg/kg where each dose is tested on a separate day. A single intravenous bolus dose at 3 mg/kg is given and a time-course study is conducted in the second set of studies. Systolic, […], mean and […] blood pressures are recorded in both the studies.

T3 sequence (P28223 whole entry): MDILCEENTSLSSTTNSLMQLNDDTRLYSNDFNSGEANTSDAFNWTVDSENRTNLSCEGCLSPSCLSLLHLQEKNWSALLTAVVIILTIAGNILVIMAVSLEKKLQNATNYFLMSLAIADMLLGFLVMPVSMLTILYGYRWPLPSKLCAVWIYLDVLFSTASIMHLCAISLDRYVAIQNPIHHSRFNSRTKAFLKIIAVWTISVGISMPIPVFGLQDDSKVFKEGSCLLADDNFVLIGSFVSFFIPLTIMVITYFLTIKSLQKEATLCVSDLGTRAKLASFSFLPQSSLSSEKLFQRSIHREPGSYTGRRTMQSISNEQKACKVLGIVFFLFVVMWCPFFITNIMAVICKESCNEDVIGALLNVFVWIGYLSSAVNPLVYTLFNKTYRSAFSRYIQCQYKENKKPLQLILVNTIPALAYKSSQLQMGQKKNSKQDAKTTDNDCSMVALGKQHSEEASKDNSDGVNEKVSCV
T5 sequence (P50406 whole entry): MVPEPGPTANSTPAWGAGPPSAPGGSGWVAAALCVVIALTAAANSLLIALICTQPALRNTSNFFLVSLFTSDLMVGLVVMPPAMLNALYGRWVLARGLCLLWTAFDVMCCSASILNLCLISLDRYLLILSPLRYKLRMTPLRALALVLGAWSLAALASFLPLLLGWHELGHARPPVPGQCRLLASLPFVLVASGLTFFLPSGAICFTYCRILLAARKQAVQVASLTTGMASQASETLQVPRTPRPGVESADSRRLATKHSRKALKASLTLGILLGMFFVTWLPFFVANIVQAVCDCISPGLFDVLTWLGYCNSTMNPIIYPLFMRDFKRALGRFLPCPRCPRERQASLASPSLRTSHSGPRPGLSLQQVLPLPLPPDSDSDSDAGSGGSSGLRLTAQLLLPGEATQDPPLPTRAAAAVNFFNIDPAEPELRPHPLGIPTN
T6 sequence (P34969 whole entry): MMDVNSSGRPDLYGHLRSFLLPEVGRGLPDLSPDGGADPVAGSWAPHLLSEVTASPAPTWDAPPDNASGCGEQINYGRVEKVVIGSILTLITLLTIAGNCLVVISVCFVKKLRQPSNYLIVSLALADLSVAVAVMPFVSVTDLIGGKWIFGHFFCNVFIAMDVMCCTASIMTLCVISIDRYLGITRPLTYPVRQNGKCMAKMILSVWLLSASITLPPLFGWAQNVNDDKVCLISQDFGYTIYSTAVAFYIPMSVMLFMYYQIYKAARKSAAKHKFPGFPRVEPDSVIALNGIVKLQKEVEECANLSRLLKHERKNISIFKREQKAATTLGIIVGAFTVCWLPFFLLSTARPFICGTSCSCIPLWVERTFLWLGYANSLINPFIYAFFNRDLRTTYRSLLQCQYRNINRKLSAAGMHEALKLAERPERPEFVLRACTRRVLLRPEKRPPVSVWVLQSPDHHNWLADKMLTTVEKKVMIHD
T2 sequence (P14416 whole entry): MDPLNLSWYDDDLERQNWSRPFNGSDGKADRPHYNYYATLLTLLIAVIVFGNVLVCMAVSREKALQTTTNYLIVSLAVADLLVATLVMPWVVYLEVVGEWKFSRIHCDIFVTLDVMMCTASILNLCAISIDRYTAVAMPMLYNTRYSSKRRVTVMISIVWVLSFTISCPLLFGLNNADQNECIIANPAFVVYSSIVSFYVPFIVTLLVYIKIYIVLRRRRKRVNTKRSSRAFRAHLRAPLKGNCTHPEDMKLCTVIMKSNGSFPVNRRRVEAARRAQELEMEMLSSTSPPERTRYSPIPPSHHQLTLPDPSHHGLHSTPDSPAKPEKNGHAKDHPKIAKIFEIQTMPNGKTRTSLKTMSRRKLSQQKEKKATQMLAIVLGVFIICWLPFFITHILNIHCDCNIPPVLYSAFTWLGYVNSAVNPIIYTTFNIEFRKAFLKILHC
T1 sequence (P35367 whole entry): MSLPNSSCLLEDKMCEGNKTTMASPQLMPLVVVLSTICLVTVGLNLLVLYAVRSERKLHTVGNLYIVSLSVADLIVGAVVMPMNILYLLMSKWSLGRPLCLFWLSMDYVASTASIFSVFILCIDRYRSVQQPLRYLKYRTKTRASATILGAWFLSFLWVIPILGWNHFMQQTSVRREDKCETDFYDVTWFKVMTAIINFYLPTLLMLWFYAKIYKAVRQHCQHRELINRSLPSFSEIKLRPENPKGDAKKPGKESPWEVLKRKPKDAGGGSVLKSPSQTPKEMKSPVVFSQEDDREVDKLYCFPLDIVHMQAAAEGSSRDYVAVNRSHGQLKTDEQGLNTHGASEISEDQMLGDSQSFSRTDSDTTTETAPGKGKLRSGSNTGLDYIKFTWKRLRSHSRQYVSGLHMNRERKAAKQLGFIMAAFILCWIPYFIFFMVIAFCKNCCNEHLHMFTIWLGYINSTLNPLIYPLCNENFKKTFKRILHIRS

Row | SMILES | inhibition at 1 µM [1] [%] | inhibition at 1 µM [2] [%] | inhibition at 0.1 µM [3] [%] | inhibition at 0.1 µM [4] [%] | inhibition at 0.1 µM [5] [%] | inhibition at 0.1 µM [6] [%] | maximum drop of arterial blood pressure [7] [mmHg]
1 | CN1CCc2c(c3cc(Cl)ccc3n2C=C2CCCCC2)C1 [i-1] | 100 | 93 | 94 | 98 | 91 | 81 | –
2 | Clc1cccc(Cl)c1N=C1NCCN1 [Clonidine] | – | – | – | – | – | – | −6
